ChEMBL document CHEMBL5223077, “Recent advances on synthesis and biological activities of aurones” (Bioorg Med Chem, 2021)
≈ marks a conversion by molar mass, not a printed value.

What was measured:
[1] = test system: MDA-MB-435; assay: Antiproliferative activity against human MDA-MB-435 cells assessed as cell growth inhibition at 10 uM relative to control; type: functional, cell-based
[2] = test system: K562; assay: Antiproliferative activity against human K562 cells assessed as cell growth inhibition at 10 uM relative to control; type: functional, cell-based
[3] = target: Maltase-glucoamylase (Homo sapiens, UniProt O43451); assay: Inhibition of alpha-glucosidase (unknown origin)
[4] = target: T1, Nitric oxide synthase, inducible (Mus musculus, UniProt P29477); assay: Inhibition of iNOS expression in LPS-induced mouse RAW264.7 cells; type: cell-based
T1 sequence (P29477 whole entry): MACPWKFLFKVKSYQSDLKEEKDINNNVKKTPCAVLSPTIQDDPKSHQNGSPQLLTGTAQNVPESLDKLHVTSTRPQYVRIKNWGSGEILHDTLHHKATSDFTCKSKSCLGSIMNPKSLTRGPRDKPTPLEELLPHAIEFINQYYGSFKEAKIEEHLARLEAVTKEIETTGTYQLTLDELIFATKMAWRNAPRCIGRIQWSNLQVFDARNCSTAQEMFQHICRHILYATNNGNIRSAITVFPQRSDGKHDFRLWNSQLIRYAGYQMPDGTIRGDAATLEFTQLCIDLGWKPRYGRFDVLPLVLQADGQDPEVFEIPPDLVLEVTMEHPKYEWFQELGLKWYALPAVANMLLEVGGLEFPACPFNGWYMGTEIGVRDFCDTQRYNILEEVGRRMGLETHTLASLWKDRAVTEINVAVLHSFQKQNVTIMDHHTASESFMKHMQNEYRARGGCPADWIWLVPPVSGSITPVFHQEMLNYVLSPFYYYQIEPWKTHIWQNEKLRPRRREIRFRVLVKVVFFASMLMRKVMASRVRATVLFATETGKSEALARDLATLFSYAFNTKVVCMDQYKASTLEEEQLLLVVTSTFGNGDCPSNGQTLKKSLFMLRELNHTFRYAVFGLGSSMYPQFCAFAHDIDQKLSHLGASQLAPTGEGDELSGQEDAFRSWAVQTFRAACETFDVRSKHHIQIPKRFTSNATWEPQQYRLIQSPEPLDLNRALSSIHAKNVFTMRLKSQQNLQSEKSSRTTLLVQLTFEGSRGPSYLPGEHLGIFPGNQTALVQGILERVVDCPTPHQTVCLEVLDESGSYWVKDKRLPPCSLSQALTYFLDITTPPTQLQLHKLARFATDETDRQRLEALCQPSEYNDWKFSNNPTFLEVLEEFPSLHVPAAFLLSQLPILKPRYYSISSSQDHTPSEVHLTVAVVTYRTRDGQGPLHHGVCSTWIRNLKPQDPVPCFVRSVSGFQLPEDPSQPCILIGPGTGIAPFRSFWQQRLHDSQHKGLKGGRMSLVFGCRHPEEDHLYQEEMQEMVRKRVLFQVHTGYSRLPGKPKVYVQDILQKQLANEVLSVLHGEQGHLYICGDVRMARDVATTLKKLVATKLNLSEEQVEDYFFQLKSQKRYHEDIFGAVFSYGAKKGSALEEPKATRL

[5] = test system: Plasmodium falciparum; assay: Antiplasmodial activity against Plasmodium falciparum 3D7; type: functional, organism-based
[6] = Antioxidant activity assessed as ABTS radical scavenging activity; type: functional
[7] = test system: Mycobacterium tuberculosis; assay: Antimycobacterial activity against Mycobacterium tuberculosis; type: functional
[8] = test system: MES-SA/Dx5; assay: Antiproliferative activity against human MES-SA/Dx5 cells assessed as cell growth inhibition; type: functional, cell-based
[9] = test system: MES-SA; assay: Antiproliferative activity against human MES-SA cells assessed as cell growth inhibition; type: functional, cell-based
[10] = test system: HL-60; assay: Antiproliferative activity against human HL-60 cells assessed as cell growth inhibition; type: functional, cell-based
[11] = test system: HT-29; assay: Antiproliferative activity against human HT-29 cells assessed as cell growth inhibition; type: functional, cell-based
[12] = Antioxidant activity assessed as DPPH radical scavenging activity relative to control; type: functional; parameters: concentration or dose not given beside the values
[13] = target: Tubulin; assay: Inhibition of tubulin (unknown origin); type: protein-complex assay, Homo sapiens
[14] = test system: Bacillus subtilis; assay: Antimicrobial activity against Bacillus subtilis assessed as inhibition of bacterial growth; type: functional
[15] = test system: Candida albicans; assay: Antifungal activity against Candida albicans assessed as inhibition of fungal growth; type: functional
[16] = test system: Staphylococcus aureus; assay: Antimicrobial activity against Staphylococcus aureus assessed as inhibition of bacterial growth; type: functional
[17] = test system: Mycolicibacterium smegmatis; assay: Anti-mycobacterial activity against Mycobacterium smegmatis assessed as inhibition of bacterial growth; type: functional
[18] = test system: Fusarium oxysporum; assay: Antifungal activity against Fusarium oxysporum assessed as inhibition of fungal growth; type: functional
[19] = test system: Plasmodium falciparum; assay: Antiplasmodial activity against Plasmodium falciparum D6; type: functional, organism-based
[20] = test system: Plasmodium falciparum; assay: Antiplasmodial activity against Plasmodium falciparum W2; type: functional, organism-based
[21] = Antioxidant activity assessed as DPPH radical scavenging activity; type: functional
[22] = Inhibition of CDK5/p25 (unknown origin); parameters: species or system Homo sapiens

Chain of Maltase-glucoamylase (O43451 whole entry): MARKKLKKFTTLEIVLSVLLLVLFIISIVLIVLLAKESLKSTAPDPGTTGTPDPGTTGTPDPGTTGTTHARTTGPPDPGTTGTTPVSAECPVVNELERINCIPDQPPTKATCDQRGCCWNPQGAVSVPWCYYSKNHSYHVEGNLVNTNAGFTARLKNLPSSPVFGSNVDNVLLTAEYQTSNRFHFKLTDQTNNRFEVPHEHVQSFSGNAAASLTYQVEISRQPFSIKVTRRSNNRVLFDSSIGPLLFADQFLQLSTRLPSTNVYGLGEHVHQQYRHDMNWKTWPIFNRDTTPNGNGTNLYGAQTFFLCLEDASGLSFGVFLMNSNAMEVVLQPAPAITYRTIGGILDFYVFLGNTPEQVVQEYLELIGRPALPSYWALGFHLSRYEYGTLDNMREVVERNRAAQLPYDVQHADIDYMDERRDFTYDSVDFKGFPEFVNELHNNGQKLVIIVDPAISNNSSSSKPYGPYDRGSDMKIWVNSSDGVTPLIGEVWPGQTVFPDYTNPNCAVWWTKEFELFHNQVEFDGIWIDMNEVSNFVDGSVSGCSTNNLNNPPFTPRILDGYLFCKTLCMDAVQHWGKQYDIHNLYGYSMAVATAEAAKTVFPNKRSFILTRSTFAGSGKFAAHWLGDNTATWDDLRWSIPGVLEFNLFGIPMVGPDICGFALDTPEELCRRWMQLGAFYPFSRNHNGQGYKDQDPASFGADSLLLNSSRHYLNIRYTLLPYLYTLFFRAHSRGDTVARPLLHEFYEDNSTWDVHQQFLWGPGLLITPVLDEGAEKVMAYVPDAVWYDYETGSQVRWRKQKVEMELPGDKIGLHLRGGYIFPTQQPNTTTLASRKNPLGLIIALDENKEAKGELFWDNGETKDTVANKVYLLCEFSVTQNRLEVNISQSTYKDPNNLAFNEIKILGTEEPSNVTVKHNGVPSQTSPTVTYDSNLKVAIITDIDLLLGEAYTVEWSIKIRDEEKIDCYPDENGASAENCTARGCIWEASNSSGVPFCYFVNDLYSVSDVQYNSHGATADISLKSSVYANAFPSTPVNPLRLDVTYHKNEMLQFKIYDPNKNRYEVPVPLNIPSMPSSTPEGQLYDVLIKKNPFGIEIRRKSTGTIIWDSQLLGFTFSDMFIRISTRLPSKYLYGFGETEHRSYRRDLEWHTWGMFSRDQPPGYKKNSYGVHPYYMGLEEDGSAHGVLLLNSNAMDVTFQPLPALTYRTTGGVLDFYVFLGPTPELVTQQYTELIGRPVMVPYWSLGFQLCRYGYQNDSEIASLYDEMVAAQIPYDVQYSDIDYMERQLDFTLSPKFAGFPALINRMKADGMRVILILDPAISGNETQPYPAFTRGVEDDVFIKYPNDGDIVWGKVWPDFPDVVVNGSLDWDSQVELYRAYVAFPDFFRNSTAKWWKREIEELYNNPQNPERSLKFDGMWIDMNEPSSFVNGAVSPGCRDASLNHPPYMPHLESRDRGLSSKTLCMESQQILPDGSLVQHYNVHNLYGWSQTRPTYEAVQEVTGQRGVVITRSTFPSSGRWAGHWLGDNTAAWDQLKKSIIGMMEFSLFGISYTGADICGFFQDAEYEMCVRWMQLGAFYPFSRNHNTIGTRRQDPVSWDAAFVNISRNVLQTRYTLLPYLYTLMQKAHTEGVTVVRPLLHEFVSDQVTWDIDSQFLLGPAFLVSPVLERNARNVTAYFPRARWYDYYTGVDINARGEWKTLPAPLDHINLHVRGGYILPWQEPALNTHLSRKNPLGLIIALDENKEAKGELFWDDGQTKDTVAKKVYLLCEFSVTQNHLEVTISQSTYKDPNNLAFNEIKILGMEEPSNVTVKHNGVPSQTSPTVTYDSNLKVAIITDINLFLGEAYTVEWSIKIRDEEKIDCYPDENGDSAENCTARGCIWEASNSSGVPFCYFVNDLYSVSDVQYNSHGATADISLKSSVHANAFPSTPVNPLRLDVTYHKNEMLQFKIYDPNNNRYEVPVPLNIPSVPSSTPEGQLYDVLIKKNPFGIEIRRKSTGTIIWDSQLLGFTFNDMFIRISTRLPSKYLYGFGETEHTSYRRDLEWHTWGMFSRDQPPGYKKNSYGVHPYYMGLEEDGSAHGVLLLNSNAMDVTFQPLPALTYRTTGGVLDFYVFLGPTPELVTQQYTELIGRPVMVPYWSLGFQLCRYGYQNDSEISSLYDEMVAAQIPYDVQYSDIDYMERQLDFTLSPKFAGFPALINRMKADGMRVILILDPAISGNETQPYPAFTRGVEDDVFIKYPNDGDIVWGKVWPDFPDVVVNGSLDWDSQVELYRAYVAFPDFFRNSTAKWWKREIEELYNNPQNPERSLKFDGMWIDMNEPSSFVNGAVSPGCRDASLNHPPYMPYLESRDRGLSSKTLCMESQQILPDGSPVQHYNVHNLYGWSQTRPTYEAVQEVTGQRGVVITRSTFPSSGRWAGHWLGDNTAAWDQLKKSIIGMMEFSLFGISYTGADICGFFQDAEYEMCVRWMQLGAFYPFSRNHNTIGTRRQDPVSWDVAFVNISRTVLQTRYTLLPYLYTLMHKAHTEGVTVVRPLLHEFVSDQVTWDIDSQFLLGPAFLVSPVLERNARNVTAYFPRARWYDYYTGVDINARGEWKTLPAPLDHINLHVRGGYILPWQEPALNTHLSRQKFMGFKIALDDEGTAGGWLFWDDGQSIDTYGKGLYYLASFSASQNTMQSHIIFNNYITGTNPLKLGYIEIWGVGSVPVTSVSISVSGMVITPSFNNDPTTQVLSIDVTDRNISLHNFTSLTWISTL

For `COc1cc(/C=C2\Oc3cc4occc4c(OC)c3C2=O)ccc1OCC(=O)Nc1ccccc1`, the IC50 [1] was 7.05 µM, the inhibition of growth at 10 µM ([1]; dose 10 µM, read-out: GI) was 79.6% and the inhibition of growth at 10 µM ([2]; dose 10 µM, read-out: GI) was 70.3%.

In the case of `CC(C)=CCc1c(O)ccc2c1O/C(=C\c1ccc(O)cc1)C2=O`, the IC50 [3] is reported as 73.8 µM.

`CC1(C)CCc2c(ccc3c2O/C(=C\c2cccc(O)c2)C3=O)O1` showed an IC50 [4] of 10.8 µM.

For `CCCOc1c(Br)cc(/C=C2\Oc3cc(OC)cc(OC)c3C2=O)cc1OC`, the IC50 [5] was 2.3 µM.

`COc1cc(OC)c(C2=CCN(Cc3ccccc3)CC2)c2c1C(=O)/C(=C/c1ccc(F)cc1)O2` gave an IC50 [6] of 71.7 µM.

Compound `CC(=O)N1/C(=C\c2ccc(-c3ccsc3)cc2)C(=O)c2ccccc21` has an MIC99 [7] of 0.6 µM (≈ 0.207 µg/mL).

Work on `COc1cc2c(c(OC)c1)C(=O)/C(=C/c1ccc(C(C)(C)C)cc1)N2` yielded an IC50 [8] of 3.4 µM and an IC50 [9] of 11.9 µM.

In the case of `COc1cc(OC)c(C2=CCN(Cc3ccccc3)CC2)c2c1C(=O)/C(=C/c1ccc(Br)cc1)O2`, the IC50 [6] is reported as 87 µM.

`COc1ccc2c(c1)O/C(=C\c1ccc(C(F)(F)F)cc1)C2=O` showed an IC50 [10] of 2.59 µM and an IC50 [11] of 5.9 µM.

For `COc1cc(/C=C2\Oc3c(ccc(O)c3OC)C2=O)ccc1O`, the Activity [12] was 47.4%.

`CCn1cc(/C=C2\Oc3cc(OCC#N)cc(O)c3C2=O)c2cc(OC)ccc21` gave an IC50 [13] of 58.6 µM.

Work on `Cc1cc(C)c2cc(/C=C3\Oc4cc(O)cc(O)c4C3=O)c(Cl)nc2c1` yielded an MIC [14] of 156 µg/mL (≈ 424 µM), an MIC [15] of 156 µg/mL (≈ 424 µM) and an MIC [16] of 2500 µg/mL (≈ 6800 µM). It also gave an MIC [17] of 78 µg/mL (≈ 212 µM) and an MIC [18] of 313 µg/mL (≈ 851 µM).

For `Cc1ccc(/C=C2\Oc3c(ccc4c3CCC(C)(C)O4)C2=O)o1`, the IC50 [4] was 11.9 µM.

With `O=C1/C(=C/c2cc3cc(Br)ccc3nc2Cl)Oc2cc(O)cc(O)c21` the MIC [14] was 313 µg/mL (≈ 748 µM), the MIC [15] was 78 µg/mL (≈ 186 µM) and the MIC [16] was 1250 µg/mL (≈ 2990 µM).

In the case of `O=C1/C(=C/c2cc3ccccc3nc2Cl)Oc2cc(O)cc(O)c21`, the MIC [14] is reported as 20 µg/mL (≈ 58.9 µM), the MIC [16] is reported as 1250 µg/mL (≈ 3680 µM) and the MIC [17] is reported as 625 µg/mL (≈ 1840 µM). For the same compound, the MIC [18] was 625 µg/mL (≈ 1840 µM).

With `CCOc1c(Br)cc(/C=C2\Oc3cc(OC)cc(OC)c3C2=O)cc1OC` the IC50 [5] was 7.27 µM.

With `COc1cc(/C=C2\Oc3c(ccc(OC)c3OC)C2=O)ccc1O` the Activity [12] was 32.8%.

Compound `CCOc1ccc2c(c1)O/C(=C\c1ccc(C(F)(F)F)cc1)C2=O` has an IC50 [10] of 1.65 µM and an IC50 [11] of 9.12 µM.

`CC1(C)CCc2c(ccc3c2O/C(=C\c2ccccc2)C3=O)O1` showed an IC50 [4] of 12.2 µM.

`COc1ccc2c(c1OC)O/C(=C\c1ccc(O)c(O)c1)C2=O` gave an Activity [12] of 85.8%.

Work on `CC1(C)CCc2c(ccc3c2O/C(=C\c2ccc(O)c(O)c2)C3=O)O1` yielded an IC50 [4] of 8.09 µM.

`CC(=O)N1/C(=C\c2ccc(-c3cncc4ccccc34)cc2)C(=O)c2ccccc21` gave an MIC99 [7] of 0.74 µM (≈ 0.289 µg/mL).

With `COc1cc(OC)c2c(c1)O/C(=C\c1ccc(OC)c(OC)c1)C2=O` [4,6,3',4'-TETRAMETHOXYAURONE] the IC50 [19] was 13.9 µM, the IC50 [5] was 7.82 µM and the IC50 [20] was 13.9 µM.

Compound `O=C1c2ccccc2OC1(O)Cc1ccc(Cl)cc1` (centres undefined) has an IC50 [21] of 54 µM.

Compound `COc1c(O)ccc2c1O/C(=C\c1ccc(O)c(O)c1)C2=O` has an Activity [12] of 84.2%.

For `CC(=O)N1/C(=C\c2ccc(Br)cc2)C(=O)c2ccccc21`, the MIC99 [7] was 0.37 µM (≈ 0.127 µg/mL).

For `COc1cc2c(c(OC)c1)C(=O)/C(=C/c1c(C)c(C)cc(C)c1C)N2`, the IC50 [8] was 19.5 µM and the IC50 [9] was 9.2 µM.

Compound `CCCCCCCOc1ccc2c(c1)O/C(=C\c1ccc(C(F)(F)F)cc1)C2=O` has an IC50 [10] of 2.67 µM and an IC50 [11] of 4.32 µM.

Work on `CC1(C)CCc2c(ccc3c2O/C(=C\c2ccccn2)C3=O)O1` yielded an IC50 [4] of 8.41 µM.

Compound `COc1ccc2c(c1)O/C(=C\c1cc(O)ccc1O)C2=O` has an IC50 [21] of 35.9 µM.

For `C#Cc1cccc(Nc2ncnc3cc(OCCOC)c(OCCOC)cc23)c1` [ERLOTINIB], the IC50 [1] was 7.05 µM and the IC50 [2] was 3.29 µM.

In the case of `O=C1/C(=C/c2ccc(C(F)(F)F)cc2)Oc2cc(O)ccc21`, the IC50 [10] is reported as 1.54 µM and the IC50 [11] is reported as 8.9 µM.

With `COc1cc(/C=C2\Oc3c(ccc4c3CCC(C)(C)O4)C2=O)ccc1O` the IC50 [4] was 5.22 µM.

`O=C1/C(=C/c2ccc(C(F)(F)F)cc2)Oc2cc(OCc3ccccc3)ccc21` gave an IC50 [10] of 3.46 µM and an IC50 [11] of 4.12 µM.

Compound `C=CCOc1ccc2c(c1)O/C(=C\c1ccc(C(F)(F)F)cc1)C2=O` has an IC50 [10] of 3.53 µM and an IC50 [11] of 4.12 µM.

Compound `O=C1/C(=C/c2ccc(Cl)cc2)Oc2ccccc21` has an IC50 [21] of 92 µM.

Work on `COc1ccc(/C=C2\Oc3c(ccc(OC)c3OC)C2=O)cc1O` yielded an Activity [12] of 8.9%.

`Cc1ccc2cc(/C=C3\Oc4cc(O)cc(O)c4C3=O)c(Cl)nc2c1C` showed an MIC [14] of 625 µg/mL (≈ 1700 µM) and an MIC [16] of 1250 µg/mL (≈ 3400 µM).

For `O=C1/C(=C/c2ccc(O)c(O)c2)Oc2cc(O)cc(O)c21` [AUREUSIDIN], the IC50 [22] was 4.81 µM.

With `COc1cc(OC)c2c(c1)O/C(=C\c1ccccc1)C2=O` the IC50 [19] was 16.9 µM and the IC50 [20] was 16.9 µM.

For `CCCCc1ccc(/C=C2\Nc3cc(OC)cc(OC)c3C2=O)cc1`, the IC50 [8] was 3.7 µM and the IC50 [9] was 17.8 µM.

In the case of `COc1cc2c(c(OC)c1)C(=O)/C(=C/c1ccc(C(C)C)cc1)N2`, the IC50 [8] is reported as 5.8 µM and the IC50 [9] is reported as 17.1 µM.

For `O=C1/C(=C/c2ccncc2)Oc2cc(OCc3c(Cl)cccc3Cl)ccc21`, the IC50 [13] was 66 µM.
